The source of these data is PubChem BioAssay (NCI).

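These data come from cells grown in 96-well plates and exposed to compound for 48 hours at five concentrations. GI50 is the concentration that inhibits growth by half. TGI is the concentration that stops growth completely.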 Bounds are passed on as bounds.

Common to all, as to experiment: NCI-60 cell line screen, 48 h
For assay [1], the system named is ACHN renal.
Assay [2] deals with SF-539 CNS.
Assay [3] concerns OVCAR-3 ovarian.
The test system of assay [4] is HL-60(TB) leukemia.
In assay [5] the test system is HOP-62 NSCLC.
Assay [6] relates to 786-0 renal.
For assay [7], the system named is MOLT-4 leukemia.
Assay [8] concerns CCRF-CEM leukemia.
The test system of assay [9] is HOP-92 NSCLC.
The test system of assay [10] is NCI-H226 lung.

As for `COc1ccc(Cl)cc1NC(=O)C(Br)C(Br)C(=O)O` (centres undefined), the GI50 is 17.2 µM in assay [1]; 11.5 µM in assay [2]; 2.63 µM in assay [3]; 5.61 µM in [4]; 4.79 µM in [5]; 21.7 µM in assay [6]. Besides, the GI50 in assay [7] is 6.78 µM; in [8], 2.9 µM; in assay [9] it was 12.8 µM; in [10], 13.7 µM. Further, the TGI in assay [1] was more than 80.5 µM; in [2], 25.4 µM; in assay [3], 6.81 µM; in assay [4] it was more than 100 µM; in assay [5], 21.3 µM; in assay [6], 47.7 µM. Further, the TGI in assay [7] is more than 100 µM; in assay [8] it was more than 100 µM; in assay [9] it was 33.1 µM; in assay [10], 35.9 µM.

On to `CO[C@@H]1/C=C(C)/C=C/[C@@H](C)/C=C(\C)C(=O)OC(/C(C)=C/C=C(\C)CNC(=O)[C@H](CO)NC=O)[C@@H](C)/C=C/C=C/[C@H](OC)CC/C=C(C)/C=C/C1` (some centres undefined), for which the GI50 in [1] was 0.00904 µM; in assay [2], less than 0.005 µM; in [3] it was less than 0.005 µM; in assay [4], less than 0.005 µM; in assay [5] it was less than 0.005 µM; in [6] it was less than 0.005 µM. Further, the GI50 in [7], in assay [8], in [9] and in assay [10] was less than 0.005 µM each time. The TGI is 0.187 µM in assay [1]; 0.199 µM in assay [2]; 0.605 µM in assay [3]; more than 50 µM in assay [4]; less than 0.005 µM in assay [5]; 0.322 µM in assay [6]. Further, the TGI in [7] was more than 42.2 µM; in assay [8], 16.5 µM; in assay [9], 0.0852 µM; in [10] it was 0.221 µM.

Turning to `O=C(c1ccco1)c1c(C(F)(F)F)n([O-])c2ccccc2[n+]1=O`, the GI50 is 0.506 µM in assay [1]; 0.28 µM in assay [2]; 0.735 µM in [3]; 0.175 µM in assay [4]; 0.949 µM in assay [5]; 0.42 µM in assay [6]. Further, the GI50 was 0.102 µM in [7], 0.671 µM in [8], 0.144 µM in assay [9] and 0.665 µM in [10]. The TGI is 4.21 µM in [1]; 0.712 µM in assay [2]; 3.88 µM in [3]; 1.42 µM in assay [4]; 4.34 µM in assay [5]; 1.83 µM in assay [6]. The TGI in [7] stood at 0.564 µM; in assay [8] it was 3.71 µM; in assay [9] it was 0.986 µM; in assay [10], 4.31 µM.

On to `COc1cc2c(cc1O)CC13CCC(=O)N1CCc1cc(OC)c(O)c-2c13` (centres undefined), for which the TGI in assay [1], in assay [2], in [3], in assay [4], in assay [5] and in assay [6] was more than 68.1 µM in each case. Further, the TGI in [7], in assay [8], in assay [9] and in assay [10] was more than 68.1 µM each time.

Consider `COc1ccc(-c2ccc(-c3ccc(-c4ccc(C(=N)N)cc4)s3)s2)cc1OC`, for which the GI50 in assay [1] was 3.79 µM; in [2] it was 15.4 µM; in assay [3], 0.369 µM; in [4], 7.47 µM; in [5] it was 3.26 µM; in assay [6] it was 18.4 µM. For the same compound, the GI50 in [7] is 2.51 µM; in assay [8], 2.24 µM; in assay [9], 2.18 µM; in assay [10] it was 18.5 µM. In addition, the TGI in [1] was 15.3 µM; in [2], 38.7 µM; in assay [3], 1.47 µM; in [4], 28.1 µM; in assay [5], 17.9 µM; in assay [6] it was 49.7 µM. For the same compound, the TGI worked out at 6.6 µM in [7], 6.4 µM in assay [8], 6.1 µM in [9] and 58.4 µM in assay [10].

`Cc1cc(Cc2cc(C)cc(C(C)(C)C)c2O)c(O)c(C(C)(C)C)c1`: the GI50 in assay [1] was 4.59 µM; in assay [2], 13.3 µM; in assay [3], 3.97 µM; in assay [4], 10.5 µM; in assay [5] it was 14.1 µM; in [6], 11 µM. Also, the GI50 in assay [7] was 6.27 µM; in [8], 9.98 µM; in assay [9], 4.37 µM; in assay [10], 14.2 µM. In addition, the TGI in [1] was 15.4 µM; in [2], 26 µM; in assay [3] it was 13.1 µM; in assay [4], more than 100 µM; in assay [5], 27.1 µM; in [6], 23 µM. Also, the TGI is more than 100 µM in assay [7], more than 100 µM in assay [8], 16 µM in [9] and 30 µM in assay [10].

Turning to `CN(C)C(=O)c1cc2cnc(Nc3ccc(-c4csc5c(=O)cc(N6CCOCC6)oc45)cc3)nc2n1C1CCCC1`, the GI50 in assay [1] is 0.187 µM; in [2] it was 0.154 µM; in assay [3], 0.228 µM; in assay [4] it was 0.0877 µM; in [5], 0.269 µM; in [6], 0.162 µM. For the same compound, the GI50 in assay [7] was 0.23 µM; in [8], 0.205 µM; in [9], 0.0541 µM; in assay [10], 0.229 µM. Further, the TGI in [1] is 1.25 µM; in assay [2], 0.417 µM; in [4] it was 0.698 µM; in assay [5], 1.67 µM; in [6], 4.25 µM; in [7], 3.26 µM. Moreover, the values for the TGI in assay [8], in assay [9] and in assay [10] were 18.3 µM, 41.9 µM and 2.04 µM, respectively.

For the compound `C=C1C(=O)O[C@H]2[C@H]1CC/C(COC(=O)CSCC(=O)OC/C1=C/CC[C@@]3(C)O[C@H]3[C@H]3OC(=O)C(=C)[C@@H]3CC1)=C\CC[C@@]1(C)O[C@@H]21`, the GI50 is 1.23 µM in assay [1]; 2.04 µM in assay [2]; 0.832 µM in [3]; 0.432 µM in assay [4]; 5.25 µM in assay [5]; 1.5 µM in assay [6]. Also, the GI50 in assay [7] was 0.514 µM; in [8] it was 0.268 µM; in assay [9], 1.43 µM; in assay [10], 2.28 µM. The TGI in assay [1] stood at 2.48 µM; in [2], 5.08 µM; in assay [3], 2.12 µM; in assay [4] it was 2.07 µM; in assay [5] it was 20.2 µM; in assay [6], 3.22 µM. Also, the TGI in assay [7] worked out at 2.81 µM; in assay [8], 1.25 µM; in assay [9], 3.6 µM; in assay [10] it was 6.59 µM.
